Measurements taken from US7202269B2, “GlyT2 modulators” (Janssen Pharmaceutica N.V., priority 2003, dated 2007).

molecular target: T1, human glycine transporter-2 (GlyT2) (Homo sapiens, UniProt Q9Y345); experiment: Inhibition of [14C]-glycine uptake in COS-7 cells transfected with human GlyT2; format: cell-based; conditions: Table 2, 20 μM, 2 h at 37° C., Cos-7 cells stably transfected with human GlyT2
T1 construct: The entire coding region of the human GlyT2 cDNA was cloned into the mammalian expression vector pClNeo; expressed in transfected cells; host or cells: Cos-7 cells (African green monkey kidney, ATCC), stably transfected, G418-selected; vector pClNeo
T1 sequence (Q9Y345 1-797): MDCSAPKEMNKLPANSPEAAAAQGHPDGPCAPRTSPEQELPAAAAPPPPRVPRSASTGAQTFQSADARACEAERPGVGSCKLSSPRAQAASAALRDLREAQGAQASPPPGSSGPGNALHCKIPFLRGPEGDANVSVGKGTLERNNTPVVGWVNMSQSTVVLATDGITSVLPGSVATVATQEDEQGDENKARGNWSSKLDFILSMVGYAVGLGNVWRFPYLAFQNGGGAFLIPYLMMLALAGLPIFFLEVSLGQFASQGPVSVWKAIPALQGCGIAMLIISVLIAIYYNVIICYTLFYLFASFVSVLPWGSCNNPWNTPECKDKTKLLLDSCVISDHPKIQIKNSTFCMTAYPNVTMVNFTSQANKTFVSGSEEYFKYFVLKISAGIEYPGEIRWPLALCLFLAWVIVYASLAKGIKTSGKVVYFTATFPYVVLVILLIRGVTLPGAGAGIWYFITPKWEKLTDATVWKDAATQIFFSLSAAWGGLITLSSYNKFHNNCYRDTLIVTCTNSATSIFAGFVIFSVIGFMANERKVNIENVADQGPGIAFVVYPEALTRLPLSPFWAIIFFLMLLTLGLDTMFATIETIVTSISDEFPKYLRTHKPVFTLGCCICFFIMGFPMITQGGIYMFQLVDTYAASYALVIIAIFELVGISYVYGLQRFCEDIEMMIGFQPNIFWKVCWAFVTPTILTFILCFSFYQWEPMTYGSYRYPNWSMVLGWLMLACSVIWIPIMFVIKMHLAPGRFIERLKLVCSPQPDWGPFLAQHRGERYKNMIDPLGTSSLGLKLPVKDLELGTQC
Protocol: GlyT2 antagonist activity of representative compounds of the invention was determined in accordance with the assay described in the Examples and by measuring the ability of compounds to inhibit the uptake of [^14C]-glycine in COS-7 cells transfected with the human glycine transporter-2 (GlyT2). The GlyT2 antagonist activities of these representative compounds are set forth hereinafter in Table 1.
Cos-7 cells (African green monkey, kidney) from American Type Culture Collection were grown in DMEM supplemented with 10% fetal bovine serum. The entire coding region of the human GlyT2 cDNA was cloned into the mammalian expression vector pClNeo, and then stably transfected into Cos-7 cells. Transfection was performed essentially as described by T. W. Lovenberg et al. (Mol. Pharmacol. 1999, 55:1101–1107): Briefly, cells were grown to 70–80% confluence, removed from the plate with trypsin, and pelleted in a clinical centrifuge. The pellet was resuspended in 400 μL complete medium and transferred to an electroporation cuvette with a 0.4 cm gap between the electrodes (Bio-Rad, 165–2088). One microgram of supercoiled GlyT2 cDNA was added to the cells, and the suspension was mixed. The voltage for the electroporation was set at 0.25 kV, and the capacitance was set at 960 μF. After electroporation, the cuvette contents were diluted to 10 mL with complete medium, and 0.5 mL, 1.0 mL, 2.0 mL and remainder (˜6.5 mL) portions were plated onto four 10-cm dishes. The cells were incubated 24 h before adding 600 μg/mL G418. Colonies that survived selection were isolated and tested for GlyT2 expression.
The day before the assay, the GlyT2 expressing cells were plated into 96-well scintillating microplates (Amersham, RPNQ 0160) at a density of approximately 20,000 cells per well. Cells were grown overnight at 37° C. in 5% CO2 and then washed once with 37° C. HEPES buffered saline (HBS: 150 mM NaCl, 20 mM HEPES, 1 mM CaCl2, 10 mM glucose, 5 mM KCl, 1 mM MgCl2; pH 7.4). Eighty microliters of 37° C. HBS was subsequently added to each well. Test solutions of GlyT2 inhibitors were prepared in HBS from DMSO stock solutions, and 5 μL of test solution was added to each test well. Total transport and non-specific background were determined by adding 5 μL HBS or 5 μL 2 M glycine, respectively, to the appropriate control wells. Plates were then left at rt for 5 min before the addition of 20 μL of 100 μM ^14C-glycine (NEN, NEC 048H) to each well for a final concentration of 20 μM. Plates were incubated for 2 h at 37° C. with 5% CO2. After 2 h the reaction mixtures were removed by aspiration, and the plates were washed once with ice-cold HBS. Plates were sealed with TopSeal (Packard, 6005185) and counted on a Packard TopCount® scintillation counter.

| SMILES | IC50 [nM] |
| --- | --- |
| CN(C)CCN(C)C(=O)C(Cc1ccccc1)NC(=O)Nc1ccc(-c2ccccc2)cc1 (centres unmarked) [Example 61, 2-(3-Biphenyl-4-yl-ureido)-N-(2-dimethylamino-ethyl)-N-methyl-3-phenyl-propionamide] | 3500 |
| CC(C)N(CCNC(=O)[C@H](Cc1ccccc1)NC(=O)Nc1ccc(Oc2ccc(Cl)cc2)cc1)C(C)C [Example 3, (S)-2-{3-[4-(4-Chloro-phenoxy)-phenyl]-ureido}-N-(2-diisopropylamino-ethyl)-3-phenyl-propionamide] | 18 |
| NCCNC(=O)CC[C@H](Cc1ccccc1)NC(=O)Nc1ccc(Oc2ccccc2)cc1 [Example 111, (R)-4-[3-(4-Phenoxy-phenyl)-ureido]-5-phenyl-pentanoic Acid (2-amino-ethyl)-amide] | 500 |
| O=C(Nc1cccc(-c2ccccc2)c1)N[C@@H](Cc1ccccc1)C(=O)NCCCN1CCCC1 [Example 150, (S)-2-(3-Biphenyl-3-yl-ureido)-3-phenyl-N-(3-pyrrolidin-1-yl-propyl)-propionamide] | 998 |
| CCCNCCNC(=O)CC[C@H](Cc1ccccc1)NC(=O)Nc1ccc(-c2ccccc2)cc1 [Example 87, (R)-4-(3-Biphenyl-4-yl-ureido)-5-phenyl-pentanoic Acid (2-propylamino-ethyl)-amide] | 76 |

Second part, the compound after the results:

| IC50 [nM] | SMILES |
| --- | --- |
| 3160 | NCCCNC(=O)/C=C/[C@H](Cc1ccccc1)NC(=O)Nc1ccc(-c2ccccc2)cc1 [Example 152, (E)-(S)-4-(3-Biphenyl-4-yl-ureido)-5-phenyl-pent-2-enoic Acid (3-amino-propyl)-amide] |
| 340 | O=C(Nc1ccc(-c2ccccc2)cc1)N[C@@H](CCCNCCN1CCCC1)Cc1ccccc1 [Example 158, 1-[(S)-1-Benzyl-4-(2-pyrrolidin-1-yl-ethylamino)-butyl]-3-biphenyl-4-yl-urea] |

same assay, conditions: Table 3, 20 μM, 2 h at 37° C., Cos-7 cells stably transfected with human GlyT2

| IC50 [nM] | SMILES |
| --- | --- |
| 89 | O=C(CC[C@H](Cc1ccccc1)NC(=S)Nc1ccc(-c2ccccc2)cc1)NCCN1CCCC1 [Example 31, (R)-4-(3-Biphenyl-4-yl-thioureido)-5-phenyl-pentanoic Acid (2-pyrrolidin-1-yl-ethyl)-amide] |
